The values below come from patent US20240383915A1, “OXAZEPINE COMPOUNDS AND USES THEREOF IN THE TREATMENT OF CANCER” (Genentech, Inc., priority 2021, published 2024).

By IC50 is commonly meant the midpoint of a concentration-inhibition curve. Higher therefore signals weaker potency in that assay.

One assay deals with KRas(G12V) (Homo sapiens (Human), UniProt P01116, G12V). The experiment in a line: KRas(G12V) GDP HTRF (BODIPY-GDP exchange TR-FRET). It counts as biochemical. Background: Time-resolved FRET reads energy transfer from a long-lived donor to a nearby acceptor.
KRas(G12V), sequence (P01116-2 other isoform, or with tags, fused parts or gaps G12V): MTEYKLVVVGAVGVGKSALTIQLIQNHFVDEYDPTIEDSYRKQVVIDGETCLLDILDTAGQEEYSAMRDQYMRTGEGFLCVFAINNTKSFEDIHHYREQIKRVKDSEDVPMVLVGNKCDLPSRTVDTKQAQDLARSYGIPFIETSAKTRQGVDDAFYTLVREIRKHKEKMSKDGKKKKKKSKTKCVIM
A further assay addresses KRas (Homo sapiens (Human), UniProt P01116). The experiment in a line: KRas GDP HTRF (BODIPY-GDP exchange TR-FRET). It counts as biochemical. How it is done: KRAS Biochemical Assay—BODIPY-GDP Exchange TR-FRET. Biochemical compound potencies were assessed by evaluating inhibition of SOS1-mediated nucleotide exchange in KRAS G12D. The SOS1-promoted exchange of fluorescently-labeled GDP (BODIPY-GDP) was monitored by time-resolved fluorescence resonance energy transfer (TR-FRET). Compounds solubilized in DMSO were dispensed as concentration series into 384-well white assay plates. […] The reaction was initiated with the addition of 5 μL of 3 nM recombinant human SOS1 and 300 nM BODIPY-GDP in assay buffer. After a 60-minute incubation, the fluorescence was measured with excitation at 337 nm and emission at 490 and 520 nm. The TR-FRET ratio was determined as the fluorescence at 520 nm divided by the fluorescence at 490 nm multiplied by 10,000. […] The normalized TR-FRET results were plotted against compound concentration, and the data fit to a 4-parameter Hill equation to determine the IC50 values.

KRas, sequence (P01116-2 other isoform, or with tags, fused parts or gaps): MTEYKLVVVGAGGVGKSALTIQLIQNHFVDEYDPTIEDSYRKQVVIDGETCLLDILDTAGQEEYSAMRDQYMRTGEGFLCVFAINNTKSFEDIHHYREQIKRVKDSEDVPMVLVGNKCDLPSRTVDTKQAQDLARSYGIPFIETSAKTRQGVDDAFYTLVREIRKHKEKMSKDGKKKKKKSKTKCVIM

For `Cc1cc(N)nc(-c2c(Cl)c3c4c(ncnc4c2F)N([C@H](C)c2cccnc2N)CCO3)c1C(F)(F)F` (atropisomer, axis not shown) [Example 53a, 6-((R)-4-((R)-1-(2-aminopyridin-3-yl)ethyl)-8-chloro-10-fluoro-5,6-dihydro-4H-[1,4]oxazepino[5,6,7-de]quinazolin-9-yl)-4-methyl-5-(trifluoromethyl)pyridin-2-amine], the values for the 50% inhibitory concentration (IC50) against KRas(G12V) and against KRas were 0.37 nM and 1.2 nM, respectively.
For the compound `Cc1cc(N)nc(-c2c(Cl)c3c4c(ncnc4c2F)N([C@H](C)c2cccnc2N)CCO3)c1C(F)(F)F` (atropisomer, axis not shown) [Example 53b, 6-((S)-4-((R)-1-(2-aminopyridin-3-yl)ethyl)-8-chloro-10-fluoro-5,6-dihydro-4H-[1,4]oxazepino[5,6,7-de]quinazolin-9-yl)-4-methyl-5-(trifluoromethyl)pyridin-2-amine], the IC50 stood at 600 nM against KRas(G12V) and 2900 nM at KRas.
For `Cc1cc(N)nc(-c2c(Cl)c3c4c(nc(OC(C)(C)[C@@H]5CC(F)(F)CN5C)nc4c2F)N([C@H](C)c2cccnc2N)CCO3)c1C(F)(F)F` (atropisomer, axis not shown) [Example 72, 6-((R)-4-((R)-1-(2-aminopyridin-3-yl)ethyl)-8-chloro-2-((2-((S)-4,4-difluoro-1-methylpyrrolidin-2-yl)propan-2-yl)oxy)-10-fluoro-5,6-dihydro-4H-[1,4]oxazepino[5,6,7-de]quinazolin-9-yl)-4-methyl-5-(trifluoromethyl)pyridin-2-amine], in that order: 12 nM and 143 nM.
For `Cc1cc(N)nc(-c2c(Cl)c3c4c(nc(OC[C@@H]5CC(F)(F)CN5C)nc4c2F)N([C@H](C)c2ccnnc2N)CCO3)c1C(F)(F)F` (atropisomer, axis not shown) [Example 85, 4-((R)-1-((R)-9-(6-amino-4-methyl-3-(trifluoromethyl)pyridin-2-yl)-8-chloro-2-(((S)-4,4-difluoro-1-methylpyrrolidin-2-yl)methoxy)-10-fluoro-5,6-dihydro-4H-[1,4]oxazepino[5,6,7-de]quinazolin-4-yl)ethyl)pyridazin-3-amine], in that order: 0.09 nM and 0.165 nM.
For `Cc1cc(N)nc(-c2c(Cl)c3c4c(nc(OC[C@H](C)N5CCOCC5)nc4c2F)N([C@H](C)c2cccnc2N)CCO3)c1C(F)(F)F` (atropisomer, axis not shown) [Example 95a, 6-((R)-4-((R)-1-(2-aminopyridin-3-yl)ethyl)-8-chloro-10-fluoro-2-((S)-2-morpholinopropoxy)-5,6-dihydro-4H-[1,4]oxazepino[5,6,7-de]quinazolin-9-yl)-4-methyl-5-(trifluoromethyl)pyridin-2-amine], in that order: 0.09 nM and 0.83 nM.
As for `Cc1cc(N)nc(-c2c(Cl)c3c4c(nc(OC[C@@H](C)N5CCOCC5)nc4c2F)N([C@H](C)c2cccnc2N)CCO3)c1C(F)(F)F` (atropisomer, axis not shown) [Example 95b, 6-((R)-4-((R)-1-(2-aminopyridin-3-yl)ethyl)-8-chloro-10-fluoro-2-((R)-2-morpholinopropoxy)-5,6-dihydro-4H-[1,4]oxazepino[5,6,7-de]quinazolin-9-yl)-4-methyl-5-(trifluoromethyl)pyridin-2-amine], the half-maximal inhibitory concentration (IC50) against KRas(G12V) is 0.12 nM; at KRas it was 0.484 nM.
For `Cc1cc(N)nc(-c2c(Cl)c3c4c(nc(OC[C@@H]5COCCN5)nc4c2F)N([C@H](C)c2cccnc2N)CCO3)c1C(F)(F)F` (atropisomer, axis not shown) [Example 96, 6-((R)-4-((R)-1-(2-aminopyridin-3-yl)ethyl)-8-chloro-10-fluoro-2-(((S)-morpholin-3-yl)methoxy)-5,6-dihydro-4H-[1,4]oxazepino[5,6,7-de]quinazolin-9-yl)-4-methyl-5-(trifluoromethyl)pyridin-2-amine], in that order: 0.08 nM and 0.299 nM.
Regarding `Cc1cc(N)nc(-c2c(Cl)c3c4c(nc(OC[C@H]5COCCN5)nc4c2F)N([C@H](C)c2cccnc2N)CCO3)c1C(F)(F)F` (atropisomer, axis not shown) [Example 97, 6-((R)-4-((R)-1-(2-aminopyridin-3-yl)ethyl)-8-chloro-10-fluoro-2-(((R)-morpholin-3-yl)methoxy)-5,6-dihydro-4H-[1,4]oxazepino[5,6,7-de]quinazolin-9-yl)-4-methyl-5-(trifluoromethyl)pyridin-2-amine], the 50% inhibitory concentration (IC50) was determined as 0.08 nM against KRas(G12V) and 0.359 nM against KRas.
Turning to `Cc1cc(N)nc(-c2c(Cl)c3c4c(nc(OCC56C[C@@H](F)CN5C[C@H](F)C6)nc4c2F)N([C@H](C)c2cccnc2N)CCO3)c1C(F)(F)F` (atropisomer, axis not shown) [Example 98a, 6-((R)-4-((R)-1-(2-aminopyridin-3-yl)ethyl)-8-chloro-2-(((2R,6R)-2,6-difluorotetrahydro-1H-pyrrolizin-7a(5H)-yl)methoxy)-10-fluoro-5,6-dihydro-4H-[1,4]oxazepino[5,6,7-de]quinazolin-9-yl)-4-methyl-5-(trifluoromethyl)pyridin-2-amine], the concentration for half-maximal inhibition (IC50) on KRas(G12V) worked out at 0.11 nM; against KRas, 0.557 nM.
For `Cc1cc(N)nc(-c2c(Cl)c3c4c(nc(OC[C@@H]5C[C@H]6COCCN65)nc4c2F)N([C@H](C)c2cccnc2N)CCO3)c1C(F)(F)F` (atropisomer, axis not shown) [Example 99a, 6-((R)-2-(((6S,8S)-4-oxa-1-azabicyclo[4.2.0]octan-8-yl)methoxy)-4-((R)-1-(2-aminopyridin-3-yl)ethyl)-8-chloro-10-fluoro-5,6-dihydro-4H-[1,4]oxazepino[5,6,7-de]quinazolin-9-yl)-4-methyl-5-(trifluoromethyl)pyridin-2-amine], in that order: 0.07 nM and 0.125 nM.
For `Cc1cc(N)nc(-c2c(Cl)c3c4c(nc(OC[C@H]5C[C@@H]6COCCN65)nc4c2F)N([C@H](C)c2cccnc2N)CCO3)c1C(F)(F)F` (atropisomer, axis not shown) [Example 99b, 6-((R)-2-(((6R,8R)-4-oxa-1-azabicyclo[4.2.0]octan-8-yl)methoxy)-4-((R)-1-(2-aminopyridin-3-yl)ethyl)-8-chloro-10-fluoro-5,6-dihydro-4H-[1,4]oxazepino[5,6,7-de]quinazolin-9-yl)-4-methyl-5-(trifluoromethyl)pyridin-2-amine], in that order: 0.08 nM and 0.0748 nM.
`Cc1cc(N)nc(-c2c(Cl)c3c4c(nc(OC[C@@H]5CCCN5CC(F)F)nc4c2F)N([C@H](C)c2cncnc2N)CCO3)c1C(F)(F)F` (atropisomer, axis not shown) [Example 103a, 5-((R)-1-((R)-9-(6-amino-4-methyl-3-(trifluoromethyl)pyridin-2-yl)-8-chloro-2-(((S)-1-(2,2-difluoroethyl)pyrrolidin-2-yl)methoxy)-10-fluoro-5,6-dihydro-4H-[1,4]oxazepino[5,6,7-de]quinazolin-4-yl)ethyl)pyrimidin-4-amine] gave an IC50 at KRas of 1.13 nM.
For the compound `COCCN1CCC(Oc2nc3c4c(c(Cl)c(-c5nc(N)cc(C)c5C(F)(F)F)c(F)c4n2)OCCN3[C@H](C)c2cccnc2N)CC1` (atropisomer, axis not shown) [Example 126, 6-((R)-4-((R)-1-(2-aminopyridin-3-yl)ethyl)-8-chloro-10-fluoro-2-((1-(2-methoxyethyl)piperidin-4-yl)oxy)-5,6-dihydro-4H-[1,4]oxazepino[5,6,7-de]quinazolin-9-yl)-4-methyl-5-(trifluoromethyl)pyridin-2-amine], the figures for the half-maximal inhibitory concentration (IC50) on KRas(G12V) and at KRas were 0.34 nM and 2.87 nM, respectively.
On to `Cc1cc(N)nc(-c2c(Cl)c3c4c(nc(OC[C@@H]5CCCN5C)nc4c2F)N([C@H](C)c2cccnc2N)CCO3)c1C(F)(F)F` (atropisomer, axis not shown) [Example 127, 6-((R)-4-((R)-1-(2-aminopyridin-3-yl)ethyl)-8-chloro-10-fluoro-2-(((S)-1-methylpyrrolidin-2-yl)methoxy)-5,6-dihydro-4H-[1,4]oxazepino[5,6,7-de]quinazolin-9-yl)-4-methyl-5-(trifluoromethyl)pyridin-2-amine], for which the IC50 against KRas(G12V) came to 0.07 nM; at KRas, 0.0894 nM.
For `Cc1cc(N)nc(-c2c(Cl)c3c4c(nc(OC[C@]56CCCN5CCOC6)nc4c2F)N([C@H](C)c2cccnc2N)CCO3)c1C(F)(F)F` (atropisomer, axis not shown) [Example 128a, 6-((R)-4-((R)-1-(2-aminopyridin-3-yl)ethyl)-8-chloro-10-fluoro-2-(((R)-tetrahydro-1H-pyrrolo[2,1-c][1,4]oxazin-8a(6H)-yl)methoxy)-5,6-dihydro-4H-[1,4]oxazepino[5,6,7-de]quinazolin-9-yl)-4-methyl-5-(trifluoromethyl)pyridin-2-amine], in that order: 0.09 nM and 0.149 nM.
With `Cc1cc(N)nc(-c2c(Cl)c3c4c(nc(OC[C@@]56CCCN5CCOC6)nc4c2F)N([C@H](C)c2cccnc2N)CCO3)c1C(F)(F)F` (atropisomer, axis not shown) [Example 128b, 6-((R)-4-((R)-1-(2-aminopyridin-3-yl)ethyl)-8-chloro-10-fluoro-2-(((S)-tetrahydro-1H-pyrrolo[2,1-c][1,4]oxazin-8a(6H)-yl)methoxy)-5,6-dihydro-4H-[1,4]oxazepino[5,6,7-de]quinazolin-9-yl)-4-methyl-5-(trifluoromethyl)pyridin-2-amine], the results for the IC50 against KRas(G12V) and at KRas were 0.19 nM and 0.469 nM, respectively.
